Assay results reported in US9504701B2, “Methods for treating viral infections using hydrogen sulfide donors” (THE BOARD OF REGENTS OF THE UNIVERSITY OF TEXAS SYSTEM, priority 2014, dated 2016).

Key:
[1] = system: A549 cells infected with RSV; format: cell-based, human
RSV = RSV replication in A549 cells, viral titers by plaque assay; format: cell-based, RSV Long strain; details: PAG 20 or 40 mM, 24 h p.i.

Structure (SMILES): C#CCC(N)C(=O)O (racemic) [PAG, DL-propargylglycin]
- levels of production of several cytokines and chemokines in response to RSV infection [1]: significantly increased
- increase in viral infectious-particle formation (plaque assay) (RSV): 3- to 4 fold
- basal cellular mediator secretion (uninfected cells): no effect
- uninfected-cell viability (trypan blue exclusion) (uninfected cells): no effect
